Source: PubChem BioAssay (NCI)
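Interpolation was linear, between the two tested concentrations surrounding the appropriate level; five concentrations were tested over 48 hours in 96-well plates. At the GI50, growth is halved. TGI marks complete inhibition of growth.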

Key:
Assay in all cases: DTP human tumour cell line panel, 48 h
HCC-2998 colon = test system: HCC-2998 colon
MALME-3M melanoma = test system: MALME-3M melanoma
BT-549 breast = test system: BT-549 breast
UACC-62 melanoma = test system: UACC-62 melanoma
NCI-H460 lung = test system: NCI-H460 lung
RPMI-8226 leukemia = test system: RPMI-8226 leukemia
KM12 colon = test system: KM12 colon
MCF7 breast = test system: MCF7 breast

CC(=O)N(O)c1ccc(/C=C/c2ccccc2)cc1
GI50 (HCC-2998 colon): 1.65 µM
TGI (HCC-2998 colon): 3.76 µM
GI50 (MALME-3M melanoma): > 66.6 µM
TGI (MALME-3M melanoma): > 100 µM
GI50 (BT-549 breast): 2.59 µM
TGI (BT-549 breast): 20.5 µM
GI50 (UACC-62 melanoma): 1.46 µM
TGI (UACC-62 melanoma): 4.69 µM
GI50 (NCI-H460 lung): 0.247 µM
TGI (NCI-H460 lung): 8.39 µM
GI50 (RPMI-8226 leukemia): 3.21 µM
TGI (RPMI-8226 leukemia): > 100 µM
GI50 (KM12 colon): 2.99 µM
TGI (KM12 colon): 28.3 µM
GI50 (MCF7 breast): 0.548 µM
TGI (MCF7 breast): > 100 µM

NC(=O)CC(N)c1nn[nH]n1 (configuration not stated)
TGI (MALME-3M melanoma): > 100 µM
TGI (BT-549 breast): > 100 µM
TGI (UACC-62 melanoma): > 100 µM
TGI (NCI-H460 lung): > 100 µM
TGI (RPMI-8226 leukemia): > 100 µM
TGI (KM12 colon): > 100 µM
TGI (MCF7 breast): > 100 µM

O=C1/C(=C/c2ccccc2[N+](=O)[O-])COc2ccc(O)cc21
GI50 (HCC-2998 colon): 1.51 µM
TGI (HCC-2998 colon): 2.94 µM
GI50 (MALME-3M melanoma): 1.65 µM
TGI (MALME-3M melanoma): 4.62 µM
GI50 (BT-549 breast): 2.3 µM
TGI (BT-549 breast): 5.23 µM
GI50 (UACC-62 melanoma): 1.52 µM
TGI (UACC-62 melanoma): 3.08 µM
GI50 (NCI-H460 lung): 2.1 µM
TGI (NCI-H460 lung): 5.04 µM
GI50 (RPMI-8226 leukemia): 0.612 µM
TGI (RPMI-8226 leukemia): 5 µM
GI50 (KM12 colon): 1.85 µM
TGI (KM12 colon): 4.31 µM
GI50 (MCF7 breast): 0.697 µM
TGI (MCF7 breast): 8.75 µM

COc1ccc(COc2cc3oc(=O)c4cc(C(C)O)ccc4c3cc2OC)cc1 (configuration not stated)
GI50 (HCC-2998 colon): > 31.4 µM
TGI (HCC-2998 colon): > 100 µM
GI50 (MALME-3M melanoma): 10.2 µM
TGI (MALME-3M melanoma): 40.2 µM
GI50 (BT-549 breast): 10.1 µM
TGI (BT-549 breast): 49.4 µM
GI50 (UACC-62 melanoma): 8.47 µM
TGI (UACC-62 melanoma): 34 µM
GI50 (NCI-H460 lung): 12.6 µM
TGI (NCI-H460 lung): > 100 µM
GI50 (RPMI-8226 leukemia): > 28.8 µM
TGI (RPMI-8226 leukemia): > 100 µM
GI50 (KM12 colon): 26.2 µM
TGI (KM12 colon): > 100 µM
GI50 (MCF7 breast): 9.49 µM
TGI (MCF7 breast): > 100 µM

CN(C)c1nc(N)c(C#N)c(C#N)c1C#N
TGI (HCC-2998 colon): > 10 µM
TGI (MALME-3M melanoma): > 10 µM
TGI (BT-549 breast): > 10 µM
TGI (UACC-62 melanoma): > 10 µM
TGI (NCI-H460 lung): > 10 µM
TGI (RPMI-8226 leukemia): > 10 µM
TGI (KM12 colon): > 10 µM
TGI (MCF7 breast): > 10 µM

O=C1C(Sc2ccc3ccccc3c2)=C(Sc2ccc3ccccc3c2)C(=O)c2ccccc21
TGI (HCC-2998 colon): 19.6 µM
TGI (BT-549 breast): 83.2 µM
TGI (UACC-62 melanoma): 14.2 µM
TGI (NCI-H460 lung): > 100 µM
TGI (MCF7 breast): 40.2 µM

O=C1/C(=C/c2ccccc2O)N=C(c2ccccc2)N1c1cc(C(F)(F)F)ccc1Cl
GI50 (HCC-2998 colon): > 100 µM
TGI (HCC-2998 colon): > 100 µM
GI50 (MALME-3M melanoma): 46.7 µM
TGI (MALME-3M melanoma): > 100 µM
GI50 (UACC-62 melanoma): 69.3 µM
TGI (UACC-62 melanoma): > 100 µM
GI50 (NCI-H460 lung): > 100 µM
TGI (NCI-H460 lung): > 100 µM
GI50 (RPMI-8226 leukemia): > 100 µM
TGI (RPMI-8226 leukemia): > 100 µM
GI50 (KM12 colon): 8.29 µM
TGI (KM12 colon): > 100 µM
GI50 (MCF7 breast): 3.04 µM
TGI (MCF7 breast): > 100 µM

Clc1nc(Cl)c2ncn(CCOCCn3cnc4c(Cl)nc(Cl)nc43)c2n1
GI50 (HCC-2998 colon): 0.213 µM
TGI (HCC-2998 colon): 0.382 µM
GI50 (MALME-3M melanoma): 0.221 µM
TGI (MALME-3M melanoma): 0.464 µM
GI50 (BT-549 breast): 0.208 µM
TGI (BT-549 breast): 0.392 µM
GI50 (UACC-62 melanoma): 0.198 µM
TGI (UACC-62 melanoma): 0.412 µM
GI50 (NCI-H460 lung): 0.217 µM
TGI (NCI-H460 lung): 0.463 µM
GI50 (KM12 colon): 0.236 µM
TGI (KM12 colon): 0.491 µM
GI50 (MCF7 breast): 0.192 µM
TGI (MCF7 breast): 0.455 µM

Nc1nc(C(=O)O)c(N=Nc2ccccc2)c(=O)[nH]1
TGI (MALME-3M melanoma): > 100 µM
TGI (BT-549 breast): > 100 µM
TGI (UACC-62 melanoma): > 100 µM
TGI (NCI-H460 lung): > 100 µM
TGI (RPMI-8226 leukemia): > 100 µM
TGI (KM12 colon): > 100 µM
TGI (MCF7 breast): > 100 µM

COc1cc(/C=C/C(=O)O[C@H]2[C@H](O[C@@H]3O[C@@H](C)[C@H](O)[C@@H](O)[C@H]3O)[C@@H](O)[C@H](OCCc3ccc(O)c(O)c3)O[C@@H]2COC2OCC(O)(CO)C2O)ccc1O (some centres not stated)
GI50 (BT-549 breast): 23.8 µM
TGI (BT-549 breast): 41.8 µM
GI50 (UACC-62 melanoma): > 100 µM
TGI (UACC-62 melanoma): > 100 µM
GI50 (NCI-H460 lung): > 100 µM
TGI (NCI-H460 lung): > 100 µM
GI50 (RPMI-8226 leukemia): > 100 µM
TGI (RPMI-8226 leukemia): > 100 µM
GI50 (KM12 colon): > 100 µM
TGI (KM12 colon): > 100 µM

Fc1ccc2nc(-c3nc(-c4ccccc4)n4ccccc34)[nH]c2c1
GI50 (HCC-2998 colon): 4.11 µM
TGI (HCC-2998 colon): 16.9 µM
GI50 (MALME-3M melanoma): 2.06 µM
TGI (MALME-3M melanoma): 4.33 µM
GI50 (BT-549 breast): 2.76 µM
TGI (BT-549 breast): 7.61 µM
GI50 (UACC-62 melanoma): 1.96 µM
TGI (UACC-62 melanoma): 4.96 µM
GI50 (NCI-H460 lung): 2.07 µM
TGI (NCI-H460 lung): 5.2 µM
GI50 (KM12 colon): 3.31 µM
TGI (KM12 colon): 10.2 µM
GI50 (MCF7 breast): 1.37 µM
TGI (MCF7 breast): 5.59 µM

N#Cc1cc2c(cc1Cl)Sc1nnc(Nc3cccc4ccccc34)n1S2(=O)=O
GI50 (MALME-3M melanoma): 2.03 µM
TGI (MALME-3M melanoma): 5.75 µM
GI50 (BT-549 breast): 14.6 µM
TGI (BT-549 breast): 28.9 µM
GI50 (UACC-62 melanoma): 2.14 µM
TGI (UACC-62 melanoma): 5.28 µM
GI50 (NCI-H460 lung): 13.8 µM
TGI (NCI-H460 lung): 33.8 µM
GI50 (RPMI-8226 leukemia): 2.66 µM
TGI (RPMI-8226 leukemia): 7.77 µM
GI50 (KM12 colon): 2.99 µM
TGI (KM12 colon): 10.1 µM
GI50 (MCF7 breast): 2.1 µM
TGI (MCF7 breast): 4.8 µM

CN(C)CCCn1c2c(c3cc4c(cc3c1=O)OCO4)C(=O)c1ccccc1-2
GI50 (HCC-2998 colon): 0.121 µM
GI50 (BT-549 breast): 5.52 µM
TGI (BT-549 breast): 29 µM
GI50 (UACC-62 melanoma): 1.05 µM
TGI (UACC-62 melanoma): 9.57 µM
GI50 (NCI-H460 lung): 8.82 µM
TGI (NCI-H460 lung): > 32.8 µM
GI50 (RPMI-8226 leukemia): 0.208 µM
TGI (RPMI-8226 leukemia): 2.82 µM
GI50 (KM12 colon): 2.89 µM
TGI (KM12 colon): 14.5 µM
GI50 (MCF7 breast): 6.84 µM
TGI (MCF7 breast): > 26.8 µM

CN1CCCC1c1cccnc1.O=C(O)c1ccccc1O.O=C([O-])c1ccccc1[OH2+].O=C([O-])c1ccccc1[OH2+].[Mn+2] (configuration not stated)
GI50 (MALME-3M melanoma): 33.1 µM
TGI (MALME-3M melanoma): 76.6 µM
GI50 (BT-549 breast): 54.3 µM
TGI (BT-549 breast): > 100 µM
GI50 (UACC-62 melanoma): > 100 µM
TGI (UACC-62 melanoma): > 100 µM
GI50 (RPMI-8226 leukemia): 77.9 µM
TGI (RPMI-8226 leukemia): > 100 µM
GI50 (KM12 colon): > 100 µM
TGI (KM12 colon): > 100 µM
GI50 (MCF7 breast): 40.3 µM
TGI (MCF7 breast): > 100 µM

C=CC(=O)N[C@@H](/C=C/C(=O)OCC)Cc1ccc(-c2cc(Cl)cc(Cl)c2)cc1
GI50 (HCC-2998 colon): 19.9 µM
TGI (HCC-2998 colon): 57.6 µM
GI50 (MALME-3M melanoma): 10.9 µM
TGI (MALME-3M melanoma): 34.1 µM
GI50 (BT-549 breast): 11.9 µM
TGI (BT-549 breast): 43.8 µM
GI50 (UACC-62 melanoma): 4.6 µM
TGI (UACC-62 melanoma): 25.2 µM
GI50 (NCI-H460 lung): 11.2 µM
TGI (NCI-H460 lung): 32.8 µM
GI50 (KM12 colon): 16.6 µM
TGI (KM12 colon): 93.7 µM
GI50 (MCF7 breast): 5.92 µM
TGI (MCF7 breast): 66.4 µM

N#CC1C(N)=NNC12Nc1ccccc1S2 (configuration not stated)
GI50 (BT-549 breast): 18.7 µM
TGI (BT-549 breast): 57.4 µM
GI50 (UACC-62 melanoma): 12.2 µM
TGI (UACC-62 melanoma): 30.3 µM
GI50 (NCI-H460 lung): 36.6 µM
TGI (NCI-H460 lung): > 100 µM
GI50 (RPMI-8226 leukemia): 26.3 µM
TGI (RPMI-8226 leukemia): > 100 µM
GI50 (KM12 colon): 18.9 µM
TGI (KM12 colon): 91.6 µM
GI50 (MCF7 breast): 37.5 µM
TGI (MCF7 breast): > 100 µM

O=c1[nH]c(=S)[nH]c(-c2ccccc2)c1Cc1c(O)ccc2ccccc12
TGI (MALME-3M melanoma): > 100 µM
TGI (BT-549 breast): 90.7 µM
TGI (UACC-62 melanoma): 52.4 µM
TGI (NCI-H460 lung): > 100 µM
TGI (RPMI-8226 leukemia): 67.6 µM
TGI (KM12 colon): > 100 µM
TGI (MCF7 breast): > 100 µM

Clc1ccc([I+]c2ccc(Cl)cc2Cl)c(Cl)c1
GI50 (MALME-3M melanoma): 1.73 µM
TGI (MALME-3M melanoma): 3.61 µM
GI50 (BT-549 breast): 2.02 µM
TGI (BT-549 breast): 4.06 µM
GI50 (NCI-H460 lung): 2.35 µM
TGI (NCI-H460 lung): 5.39 µM
GI50 (RPMI-8226 leukemia): 2.19 µM
TGI (RPMI-8226 leukemia): 5.25 µM
GI50 (KM12 colon): 2.13 µM
TGI (KM12 colon): 4.47 µM
GI50 (MCF7 breast): 1.87 µM
TGI (MCF7 breast): > 100 µM

CN1C(=NCCO)NS(=O)(=O)c2ccccc21
TGI (HCC-2998 colon): > 100 µM
TGI (BT-549 breast): > 100 µM
TGI (UACC-62 melanoma): > 100 µM
TGI (NCI-H460 lung): > 100 µM
TGI (KM12 colon): > 100 µM
TGI (MCF7 breast): > 100 µM
